# What was measured:
# [1] = test system: T Cells; assay: Immunosuppressive activity assay: T cells inhibitory activity; format: cell-based; conditions: T-cell; Table 10
# [2] = test system: DNFB-induced delayed type hypersensitivity reaction; assay: DNFB-induced delayed type hypersensitivity reaction in mice; format: in vivo, BALB/c mice; conditions: 1.5 mg/kg/d, intraperitoneal injection; model control 0.175 mm
# Protocol: The delayed type hypersensitivity (DTH) reaction in mice was induced by DNFB to evaluate the inhibition effect of the compound on DTH in vivo. […] Preparation method: the compound was dissolved in anhydrous alcohol to prepare a stock solution (50 mg/ml), which was diluted to the desired concentration when use by using a solution of 5% PEG400, 5% Tween-80 in sterile water as a solvent. […] DNFB combined with dermal protein to form a complete antigen after sensitizing on feet of mice. One week later, mice were attacked by DNFB on ears to induce a local delayed allergic reaction, i.e., the delayed type hypersensitivity reaction to cause ear swelling, while the delayed type hypersensitivity reaction would not be observed on the ear which had not been attacked. Therefore, the ear swelling can reflect the level of the delayed type hypersensitivity reaction in mice induced by DNFB. (1) 20 μl of 0.5% DNFB solution in a mixture of acetone and olive oil (4:1) as a solvent was applied on both hind legs of mice for sensitization. […] (4) Thickness of the left and right ears of the mice was measured by a micrometer screw gauge, and the swelling was calculated by subtracting the thickness of the left ear from thickness of the right ear.
# [3] = test system: SRBC-induced specific antibody-producing cells in spleen lymphocytes; assay: Quantitative hemolysis of sheep red blood cells (QHS) assay; format: in vivo, BALB/c mice; conditions: 1.5 mg/kg, intraperitoneal injection
# Description: It is a classic experimental method to determine the generation of antigen-specific antibody with SRBC hemolytic reaction in SRBC-induced mouse humoral immunity model. The quantitative hemolysis of sheep red blood cells (QHS) assay is an experimental method for evaluating the amount of the antibody secreted, which is based on the principle that the sheep red blood cells are hemolyzed by the anti-SRBC specific antibody secreted by B lymphocytes (plasma cells) to release haemoglobin. After mice are sensitized by sheep red blood cells (SRBC), there will appear cells which can secrete specific antibody in mouse spleen lymphocytes. The Antibody secreted by such cells could hemolyze SRBC with the synergistic action of the complement. Therefore, the amount of the cells secreting the specific antibody can be evaluated by determining the hemolytic degree by spectrophotometry. […] BALB/c mice were randomly divided into 5 groups with 6 mice in each group. […] When immunized, the mice in each group were administered by intraperitoneal injection once daily until 5 days after the immunization. The mice in model control group were administered daily with the solvent. 2. […] Each mice was introperitoneally injected with 0.2 ml of the diluted SRBC for sensitizing. 3. QHS assay was carried out 5 days after the sensitization: The mouse spleen was collected to produce the spleen lymphocytes. […] The mixture was kept at 37° C. for 1 hour, and then centrifugated at 3000 rpm for 10 min. […] The quantitative hemolysis of sheep red blood cells (QHS) assay uses the amount of haemoglobin (OD value) released from the hemolysis of red blood cells by the antibody secreted by B cells to indicate the level of humoral immunity in body. Inhibition of specific antibody-secreting cells %=(OD of model control group-OD of administration group)/(OD of model control group-OD of normal control group)
# [4] = test system: normal mouse spleen T lymphocytes induced by ConA; assay: 3H-TdR incorporation, ConA-induced T lymphocyte proliferation; format: cell-based, BALB/c mice; conditions: read-out: IC50, proliferation of T lymphocytes induced by ConA
# Protocol: ^3H-thymidine incorporation was adopted to measure the effect of the in vitro administered compound on the proliferation function of the spleen lymphocytes of normal mice induced by a mixed culture of mitogen/allogeneic mouse spleen lymphocytes, and evaluate the in vitro immunosuppressive activity of the compound.
# Measurement of the effects of compounds on the proliferation function of mouse spleen lymphocytes induced by mitogen by ^3H-TdR incorporation: 100 μl cell suspension of mouse spleen lymphocytes was inoculated on a 96-well plate (4×10^5 per well), followed by addition of 50 μl of ConA (final concentration: 5 μg/ml), 50 μl of LPS (final concentration: […]) or 50 μl of compound at different concentrations. The total volume of each well was 200 μl. The test was carried out in triplicate wells for each concentration, and included control wells without ConA/LPS or the compound. After the 96-well plate was placed in an incubator at 37° C. with 5% CO2 for 48 hours, 25 μl of ^3H-thymidine (10 μCi/ml) was added in each well 8 hours before the end of incubation. […] The amount of ^3H-TdR incorporated in cell DNA was determined by a Beta cell counter (MicroBeta Trilux, PerkinElmer), and the cell proliferation was represented as a cpm value.
# [5] = test system: human rhabdomyosarcoma RH-30 xenograft; assay: RH-30 xenograft on nude mice; conditions: for TV (mm^3) d0: baseline;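 for all read-outs here: male BALB/cA nude mice with subcutaneous RH-30 tumors, oral dosing versus solvent-fed controls, caliper tumor volume, RTV relative to grouping day, T/C as treated RTV over control RTV ×100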
# Description: Animals: BALB/cA nude mice, male, 40-45 days old, body weight: 21±2 g, provided by Shanghai Institute of Materia Medica, Chinese Academy of Sciences. License No.: SCXK (Shanghai) 2004-0002. Animal number in each group: 6 in negative control group, and 6 in administration group.
# The amount of inoculated cells was 5×10^6. After the xenograft was formed by inoculation, it was used after passed for 3 generations in nude mice.
# [6] = in vivo; format: in vivo; conditions: nude, mouse, in vivo
# [7] = Table 2, 5 mg/kg p.o, 1-5 × 3 w
# [8] = Table 2, 10 mg/kg p.o, 1-5 × 3 w
compound,measurement,setting,value
CO[C@H]1C[C@@H]2CC[C@@H](C)[C@@](O)(O2)C(=O)C(=O)N2CCCC[C@H]2C(=O)O[C@H]([C@H](C)C[C@@H]2CC[C@@H](O)[C@H](OC)C2)CC(=O)[C@H](C)/C=C(\C)[C@@H](O)[C@@H](OC)C(=O)[C@H](C)C[C@H](C)/C=C/C=C/C=C/1C [Rapamycin],IC50,[1],4200 nM
same,average ear swelling degree,[2],0.076 mm
same,Inhibition of Specific Antibody-secreting cells %,[3],100%
same,Quantitative hemolysis OD Value,"[3]; model control 0.3887, normal control 0.3036",0.3012
same,IC50,[4],196 nM
same,Body Weight (g) end,[5]; [7],27.0 g
same,Body Weight (g) start,[5]; [7],23.7 g
same,RTV,[5]; [7],5.5 ± 1.8
same,T/C (%),[5]; [7],61.8%
same,TV (mm^3) d21,[5]; [7],650 ± 326 mm^3
same,TV (mm^3) d0,[5]; [7],124 ± 65 mm^3
same,Body Weight (g) end,[5]; [8],25.7 g
same,Body Weight (g) start,[5]; [8],23.3 g
same,RTV,[5]; [8],3.1 ± 0.7
same,T/C (%),[5]; [8],35.7%
same,TV (mm^3) d0,[5]; [8],136 ± 57 mm^3
same,Body Weight (g) end,"[5]; Table 4, 2.5 mg/kg po, 1-5/2 w",21.8 g
same,Body Weight (g) start,"[5]; Table 4, 2.5 mg/kg po, 1-5/2 w",20.2 g
same,RTV,"[5]; Table 4, 2.5 mg/kg po, 1-5/2 w",2.8 ± 0.8
same,T/C (%),"[5]; Table 4, 2.5 mg/kg po, 1-5/2 w",63.7%
same,TV (mm^3) d14,"[5]; Table 4, 2.5 mg/kg po, 1-5/2 w",440 ± 157 mm^3
same,TV (mm^3) d0,"[5]; Table 4, 2.5 mg/kg po, 1-5/2 w",164 ± 67 mm^3
same,Body Weight (g) end,"[5]; Table 4, 5 mg/kg po, 1-5/2 w",20.3 g
same,Body Weight (g) start,"[5]; Table 4, 5 mg/kg po, 1-5/2 w",19.8 g
same,RTV,"[5]; Table 4, 5 mg/kg po, 1-5/2 w",2.4 ± 1.0
same,T/C (%),"[5]; Table 4, 5 mg/kg po, 1-5/2 w",54.4%
same,TV (mm^3) d14,"[5]; Table 4, 5 mg/kg po, 1-5/2 w",362 ± 100 mm^3
same,TV (mm^3) d0,"[5]; Table 4, 5 mg/kg po, 1-5/2 w",159 ± 32 mm^3
same,AUC0-t (ng · h/g or ng · h/ml),[6],1455 ng·h/mL
same,"Sirolimus concentration, Liver, Mean Value",[6]; 0.5 h,473 ng/g
same,"Sirolimus concentration, Tumor, Mean Value",[6]; 0.5 h,20.6 ng/g
same,"Sirolimus concentration, Blood Plasma, Mean Value",[6]; 2 h,121 ng/mL
same,"Sirolimus concentration, Liver, Mean Value",[6]; 2 h,193 ng/g
same,"Sirolimus concentration, Tumor, Mean Value",[6]; 2 h,50.8 ng/g
same,"Sirolimus concentration, Blood Plasma, Mean Value",[6]; 5 h,84.7 ng/mL
same,"Sirolimus concentration, Liver, Mean Value",[6]; 5 h,139 ng/g
same,"Sirolimus concentration, Tumor, Mean Value",[6]; 5 h,41.7 ng/g
same,"Sirolimus concentration, Liver, Mean Value",[6]; 12 h,54.2 ng/g
same,"Sirolimus concentration, Tumor, Mean Value",[6]; 12 h,33.2 ng/g
same,"Sirolimus concentration, Blood Plasma, Mean Value",[6]; 48 h,4.04 ng/mL
same,"Sirolimus concentration, Liver, Mean Value",[6]; 48 h,15.8 ng/g
same,"Sirolimus concentration, Tumor, Mean Value",[6]; 48 h,25.9 ng/g

# From patent US8455510B2
